# Results taken from patent US12655116B2, “Substituted isophthalic acid diamides” (Bayer Aktiengesellschaft, priority 2020, dated 2026).
# Values joined by “and” are separate entries in the source; they are usually repeats but may differ in a detail not shown here. Equal entries are not always repeated.
# Key:
# SETVI [1] = test: Pre-emergence herbicidal action against SETVI; type: in vivo, Setaria viridis
# Outline: (§1)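 Sandy loam pots, seeds covered with soil, then surface-treated with WP or EC formulations at 600–800 l/ha water plus 0.2% wetting agent. Greenhouse, 3 weeks. Percent damage vs untreated controls.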
# ALOMY [2] = test: Post-emergence herbicidal action against ALOMY; type: in vivo, Alopecurus myosuroides; details: visual assessment about 3 weeks after treatment vs untreated controls
# Outline: (§2)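 Visual % rating (0% = as untreated, 100% = dead) ~3 wk after spraying one-leaf-stage plants grown in sandy loam; WP/EC in water at 600–800 l/ha, 0.2% wetting agent.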
# ECHCG [3] = test: Pre-emergence herbicidal action against ECHCG; type: in vivo, Echinochloa crus-galli
# Outline: as §1
# MATIN [4] = test: Post-emergence herbicidal action against MATIN; type: in vivo, Matricaria inodora; details: dosage 20 g/ha
# Outline: as §2
# DIGSA [5] = test: Pre-emergence herbicidal action against DIGSA; type: in vivo, Digitaria sanguinalis
# Outline: as §1
# ABUTH [6] = test: Pre-emergence herbicidal action against ABUTH; type: in vivo, Abutilon theophrasti; details: for Pre-emergence action against ABUTH (herbicidal activity): 80 g/ha, scored visually after 3 weeks vs untreated controls (100% = plants have died, 0% = like control plants); for Pre-emergence action against ABUTH (herbicidal activity in percent): dosage 20 g/ha, scored visually after 3 weeks vs untreated controls, 100% = plants have died, 0% = like control plants
# Outline: as §1
# ABUTH [7] = test: Post-emergence herbicidal action against ABUTH; type: in vivo, Abutilon theophrasti; details: visual assessment about 3 weeks after treatment vs untreated controls
# Outline: as §2
# VERPE [8] = test: Pre-emergence herbicidal action against VERPE; type: in vivo, Veronica persica; details: dosage 80 g/ha
# Outline: as §1
# VERPE [9] = test: Post-emergence herbicidal action against VERPE; type: in vivo, Veronica persica
# Outline: as §2
# AMARE [10] = test: Pre-emergence herbicidal action against AMARE; type: in vivo, Amaranthus retroflexus
# Outline: as §1
# LOLRI = test: Pre-emergence herbicidal action against LOLRI; type: in vivo, Lolium rigidum; details: 80 g/ha
# Outline: as §1
# ALOMY [11] = test: Pre-emergence herbicidal action against ALOMY; type: in vivo, Alopecurus myosuroides; details: for Pre-emergence action against ALOMY (herbicidal activity): 80 g/ha, scored visually after 3 weeks vs untreated controls (100% = plants have died, 0% = like control plants)
# Outline: as §1
# PHBPU [12] = test: Pre-emergence herbicidal action against PHBPU; type: in vivo, Pharbitis purpurea; details: dosage 80 g/ha
# Outline: as §1
# VIOTR [13] = test: Post-emergence herbicidal action against VIOTR; type: in vivo, Viola tricolor
# Outline: as §2
# DIGSA [14] = test: Post-emergence herbicidal action against DIGSA; type: in vivo, Digitaria sanguinalis; details: for Post-emergence action against DIGSA: 20 g/ha
# Outline: as §2
# AVEFA [15] = test: Post-emergence herbicidal action against AVEFA; type: in vivo, Avena fatua; details: visual assessment about 3 weeks after treatment, 100% = plants have died, 0% = like control plants
# Outline: as §2
# ECHCG [16] = test: Post-emergence herbicidal action against ECHCG; type: in vivo, Echinochloa crus-galli
# Outline: as §2
# VIOTR [17] = test: Pre-emergence herbicidal action against VIOTR; type: in vivo, Viola tricolor
# Outline: as §1
# PHBPU [18] = test: Post-emergence herbicidal action against PHBPU; type: in vivo, Pharbitis purpurea
# Outline: as §2
# MATIN [19] = test: Pre-emergence herbicidal action against MATIN; type: in vivo, Matricaria inodora
# Outline: as §1
# SETVI [20] = test: Post-emergence herbicidal action against SETVI; type: in vivo, Setaria viridis; details: dosage 20 g/ha
# Outline: as §2
# AVEFA [21] = test: Pre-emergence herbicidal action against AVEFA; type: in vivo, Avena fatua; details: 80 g/ha, pre-emergence
# Outline: as §1
# POLCO = test: Pre-emergence herbicidal action against POLCO; type: in vivo, Polygonum convolvulus; details: dosage 80 g/ha
# Outline: as §1
# AMARE [22] = test: Post-emergence herbicidal action against AMARE; type: in vivo, Amaranthus retroflexus; details: 20 g/ha, visual assessment about 3 weeks after treatment, 100% = plants have died, 0% = like control plants
# Outline: as §2
# [23] = 20 g/ha, scored visually after 3 weeks vs untreated controls, 100% = plants have died, 0% = like control plants
# [24] = 80 g/ha, scored visually after 3 weeks vs untreated controls (100% = plants have died, 0% = like control plants)
Compound,Pre-emergence action against SETVI in % (SETVI [1]; dosage 80 g/ha) [%],Post-emergence action against ALOMY in % (ALOMY [2]; dosage 5 g/ha) [%],Post-emergence action against ALOMY in % (ALOMY [2]; dosage 20 g/ha) [%],Pre-emergence action against ECHCG in % (ECHCG [3]; 80 g/ha) [%],Post-emergence action against MATIN in % (MATIN [4]) [%],Pre-emergence action against DIGSA in % (DIGSA [5]; dosage 20 g/ha) [%],Pre-emergence action against DIGSA in % (DIGSA [5]; dosage 80 g/ha) [%],Pre-emergence action against ABUTH (herbicidal activity) (ABUTH [6]) [%],Pre-emergence action against ABUTH (herbicidal activity in percent) (ABUTH [6]) [%],Post-emergence action against ABUTH in % (ABUTH [7]; dosage 20 g/ha) [%],Pre-emergence action against VERPE in % (VERPE [8]) [%],Post-emergence action against VERPE in % (VERPE [9]; 20 g/ha) [%],Pre-emergence action against AMARE in % (AMARE [10]; [23]) [%],Pre-emergence action against AMARE in % (AMARE [10]; [24]) [%],Pre-emergence action against LOLRI in % (LOLRI) [%],Pre-emergence action against ALOMY (herbicidal activity) (ALOMY [11]) [%],Pre-emergence action against PHBPU in % (PHBPU [12]) [%],Post-emergence action against VIOTR in % (VIOTR [13]; 5 g/ha) [%],Post-emergence action against VIOTR in % (VIOTR [13]; 20 g/ha),Post-emergence action against DIGSA (DIGSA [14]) [%],other results
Cn1nnnc1NC(=O)c1ccc(C(F)(F)F)c(C(=O)NCC2CC2)c1Cl [Example 1-132],100,80,90,100,80,100,100,100,100,80,100,90,100,100,80,100,80,80,90%,90,"Pre-emergence action against SETVI in % (SETVI [1]; dosage 20 g/ha): 80%; Pre-emergence action against ECHCG in % (ECHCG [3]; 20 g/ha): 90%; Post-emergence action against VERPE in % (VERPE [9]; 5 g/ha): 90%; Pre-emergence action against ALOMY (ALOMY [11]; 20 g/ha, scored visually after 3 weeks, 100% = plants have died, 0% = like control plants): 80%; Post-emergence action at 5 g/ha against AVEFA in % (AVEFA [15]; 5 g/ha): 80%; Post-emergence action at 20 g/ha against AVEFA in % (AVEFA [15]): 90%; Post-emergence action against ECHCG in % (ECHCG [16]; dosage 20 g/ha): 90%; Pre-emergence action against VIOTR in % (VIOTR [17]; dosage 20 g/ha): 100%; Pre-emergence action against VIOTR in % (VIOTR [17]; dosage 80 g/ha): 100%; Post-emergence action against PHBPU in % (PHBPU [18]; dosage 20 g/ha): 90%; Pre-emergence action against MATIN in % (MATIN [19]; dosage 20 g/ha): 100%; Pre-emergence action against MATIN in % (MATIN [19]; dosage 80 g/ha): 100%; Post-emergence action against SETVI in % (SETVI [20]): 90%; Pre-emergence action against AVEFA in % (AVEFA [21]): 100%; Pre-emergence action against POLCO in % (POLCO): 80%; Post-emergence action at 20 g/ha against AMARE in % (AMARE [22]): 100%"
CCn1nnnc1NC(=O)c1ccc(C(F)F)c(C(=O)NCC2CC2)c1C [Example 2-47],100,80,90,100,80,100,100,100,100,90,100,80,100,100,80,100,90,80,90% and 80%,90,Post-emergence action against ABUTH in % (ABUTH [7]; dosage 5 g/ha): 90% and 80%; Post-emergence action against DIGSA in % (DIGSA [14]; 5 g/ha): 90%; Post-emergence action at 20 g/ha against AVEFA in % (AVEFA [15]): 80%; Post-emergence action against ECHCG in % (ECHCG [16]; dosage 5 g/ha): 80%; Post-emergence action against ECHCG in % (ECHCG [16]; dosage 20 g/ha): 90% and 80%; Pre-emergence action against VIOTR in % (VIOTR [17]; dosage 20 g/ha): 80%; Pre-emergence action against VIOTR in % (VIOTR [17]; dosage 80 g/ha): 100%; Post-emergence action against PHBPU in % (PHBPU [18]; dosage 5 g/ha): 80%; Post-emergence action against PHBPU in % (PHBPU [18]; dosage 20 g/ha): 90%; Pre-emergence action against MATIN in % (MATIN [19]; dosage 20 g/ha): 100%; Pre-emergence action against MATIN in % (MATIN [19]; dosage 80 g/ha): 100%; Post-emergence action against SETVI in % (SETVI [20]): 90%; Pre-emergence action against AVEFA in % (AVEFA [21]): 80%; Pre-emergence action against POLCO in % (POLCO): 80%; Post-emergence action at 20 g/ha against AMARE in % (AMARE [22]): 90% and 100%
